In general, IC50 refers to the concentration needed to halve the response being measured.

The assay relates to A2780. Nature of the assay: Anticancer activity against human A2780 cells assessed as inhibition of cell growth measured after 48 hrs by MTT assay. The note with it: A2780, 48 h. Format: functional, cell-based. A general note: Tetrazolium assays rely on reduction of a dye to a coloured formazan, in cell work by metabolically active cells.

Molecules are shown by their SMILES.

With `O=C1CCCC[C@H]1[C@H](c1ccccc1)C(F)[N+](=O)[O-]` (some centres not stated), the IC50 was determined as 89 µM. To `O=C1CCCC[C@H]1[C@@H](C[N+](=O)[O-])c1ccccc1` belongs greater than 100 µM.
